# Results reported in patent US12629415B2, “Vaccine adjuvants” (THE PROVOST, FELLOWS, FOUNDATION SCHOLARS, AND THE OTHER …, priority 2018, dated 2026).
# Entries after “also recorded” stand apart in the source; their conditions may differ.
# System: bovine PBMCs
# Test: Bovine IL-1β ELISA on stimulated PBMCs
# Assay type: cell-based, cattle
# Settings: for IL-1β secretion by bovine PBMCs in the absence of LPS priming: polydA:dT 5, 2 or 1 μg/ml or alum 50 μg/ml
# Method: Bovine peripheral blood mononuclear cells were isolated from whole blood samples collected in 9m1 vacutainers containing Heparin anticoagulant. PBMCs were spun and separated using leucosep tubes (Cruinn) and a density gradient histopaque 1077 (Sigma-Aldrich) at a speed of 1200 g for 20 minutes. Red blood cell contamination was eliminated using sterile 0.25% sodium chloride (Baxter) as a lysis buffer. The cells were subsequently washed twice in PBS at a speed of 600 g for 10 minutes to remove impurities.
# Cells were counted using a haemocytometer, microscope and trypan blue (Sigma Aldrich) and seeded at appropriate densities in tissue culture plates (Cruinn) containing media. The cells were incubated at 37° C. at 5% CO2 treated within hours of plating to avoid unwanted cell death.
# […] This concentration was selected after testing effects of a range of different LPS concentrations ranging from 1 pg/ml-1 μg/ml. […] Similar to LPS, adjuvant concentrations were selected after testing multiple different doses. After stimulation, the cells were cultured for an additional 24 hours. Supernatants were harvested and stored at −20° C. for further analysis.
# Capture antibodies (50 μl/well), diluted in the appropriate buffers, were dispensed into the wells of high binding plates (Greiner Bio-One) and incubated overnight at room temperature or 4° C. For analysis of IL-17, the ELISA plates were pre-coated with capture antibody by the manufacturing before delivery. The wells were washed with PBS/Tween 3 times and the plates were then incubated with 150 μl of blocking buffer for 1 hour at room temperature. The plates were washed again before supernatant (neat or diluted) and recombinant standards were added for 1 hour at room temperature. Following this, the plates were washed and 50 μl of detection antibody was added to the wells for a period of 1 or 2 hours at room temperature. After washing, 50 μl diluted streptavidin-HRP was added to the plate for between 30 minutes and 1 hour. After the final wash, 50 μl of 3,3′-, 5,5′-Tetramethylbenzidine (TMB) substrate was added and the plates were incubated in the dark. The reaction was stopped by addition of 1M sulphuric acid and the absorbance readings were measured at 450 nm using a microtitre plate reader. The cytokine concentrations were calculated using a linear regression standard curve from recombinant cytokines of known concentration. Skanit™ software was used to estimate values.
substance,measurement,setting,value
poly(deoxyadenylic-thymidylic) acid [Poly(dA:dT)],IL-1β secretion by bovine cells (priming not given),,enhanced by polydA:dT; also recorded: enhanced IL-1β secretion from bovine cells; also recorded: enhances IL-1β secretion in a NLRP3 independent manner; also recorded: robust driver of IL-1β secretion and IL-18 expression in cattle
same,IL-1β secretion by PBMCs from 1 month old calves following LPS priming,"5 neonatal calves, 24 hours",PBMCs from all 5 neonates secreted IL-1β
same,IL-1β secretion by PBMCs from neonatal (1 month old) calves in the absence of LPS priming,"5 neonatal calves, 24 hours",can secrete IL-1β in response to polydA:dT without LPS priming; also recorded: secreted processed IL-1β following polydA:dT stimulation
same,IL-1β secretion by bovine PBMCs primed with LPS,"LPS 100 pg/ml, polydA:dT 5, 2 or 1 μg/ml, 24 hours",secreted IL-1β when stimulated with polydA:dT at various concentrations
same,IL-1β secretion by PBMCs from calves at 2 months of age,"absence or presence of LPS, 24 hours",processed IL-1β was present in supernatants
same,"IL-1β concentrations, presence versus absence of LPS","bovine PBMCs, 24 hours",no significant difference in IL-1β concentrations
same,IL-1β secretion by bovine PBMCs in the absence of LPS priming,"24 hours, listed as PolydA:dT",capable of driving IL-1β secretion in the absence of priming with LPS
same,IL-1β secretion by bovine PBMCs in the absence of LPS priming,"24 hours, listed as polydA:dT",all calves secreted processed IL-1β
